# Earlier results as cited in patent US20150306111A1 (priority 2012, published 2015).
# “Also recorded” adds a separate entry of the source. Where two headings read alike, the source gives them in different places.
# Assays:
# [1] = test system: asthma patients with seasonal allergic rhinitis and nasal congestion; details: daily dose of 5 mg, 331 patients
smiles,measurement,setting,value
Clc1ccc2c(c1)CCc1cccnc1C2=C1CCNCC1 [desloratadine],Solubility in ethyl alcohol,ethyl alcohol,very soluble in ethyl alcohol
same,Solubility in propylene glycol,propylene glycol,moderately soluble in propylene glycol
same,Solubility in water,,practically insoluble in water; also recorded: low solubility in water
same,Solubility in water,listed as Desloratadine,poorly soluble in water
same,Effect on symptoms compared with placebo,[1],"effective in reducing overall symptoms, the symptoms of asthma and the symptoms of nasal congestion"
